Source: patent publication US20260184662A1, “COMPOSITE OF ACID AND SALT, AND PREPARATION METHOD THEREFOR” (NANJING NUTRABUILDING BIO-TECH CO., LTD., priority 2022, published 2026)
Read-outs that look alike come from different tables or passages of the source.

Tests used:
[1] = Stability of complexes at 30-80° C.; format: physicochemical
Text: For R-3-hydroxybutyric acid, potassium R-3-hydroxybutyrate, mixture of R-3-hydroxybutyric acid and potassium R-3-hydroxybutyrate, and R-3-hydroxybutyric acid·potassium R-3-hydroxybutyrate complex of Example 1, […]
For 3-hydroxybutyric acid, potassium 3-hydroxybutyrate, mixture of 3-hydroxybutyric acid and potassium 3-hydroxybutyrate, and 3-hydroxybutyric acid·potassium 3-hydroxybutyrate complex of Example 7, […]
For S-3-hydroxybutyric acid, potassium S-3-hydroxybutyrate, mixture of S-3-hydroxybutyric acid and potassium S-3-hydroxybutyrate, and S-3-hydroxybutyric acid·potassium S-3-hydroxybutyrate complex of Example 13, […]
For R-3-hydroxybutyric acid, calcium R-3-hydroxybutyrate, mixture of R-3-hydroxybutyric acid and calcium R-3-hydroxybutyrate, and R-3-hydroxybutyric acid·calcium R-3-hydroxybutyrate complex of Example 19, […]
For 3-hydroxybutyric acid, calcium 3-hydroxybutyrate, mixture of 3-hydroxybutyric acid and calcium 3-hydroxybutyrate, and 3-hydroxybutyric acid·calcium 3-hydroxybutyrate complex of Example 25, […]
For S-3-hydroxybutyric acid, calcium S-3-hydroxybutyrate, mixture of S-3-hydroxybutyric acid and calcium S-3-hydroxybutyrate, and S-3-hydroxybutyric acid·calcium S-3-hydroxybutyrate complex of Example 31, […]
For R-3-hydroxybutyric acid, magnesium R-3-hydroxybutyrate, mixture of R-3-hydroxybutyric acid and magnesium R-3-hydroxybutyrate, and R-3-hydroxybutyric acid·magnesium R-3-hydroxybutyrate complex of Example 37, […]
For 3-hydroxybutyric acid, magnesium 3-hydroxybutyrate, mixture of 3-hydroxybutyric acid and magnesium 3-hydroxybutyrate, and 3-hydroxybutyric acid·magnesium 3-hydroxybutyrate complex of Example 43, […]
For S-3-hydroxybutyric acid, magnesium S-3-hydroxybutyrate, mixture of S-3-hydroxybutyric acid and magnesium S-3-hydroxybutyrate, and S-3-hydroxybutyric acid·magnesium S-3-hydroxybutyrate complex of Example 49, […]
For R-3-hydroxypentanoic acid, sodium R-3-hydroxypentanoate, mixture of R-3-hydroxypentanoic acid and sodium R-3-hydroxypentanoate, and R-3-hydroxypentanoic acid·sodium R-3-hydroxypentanoate complex of Example 55, […]
For 3-hydroxypentanoic acid, sodium 3-hydroxypentanoate, mixture of 3-hydroxypentanoic acid and sodium 3-hydroxypentanoate, and 3-hydroxypentanoic acid·sodium 3-hydroxypentanoate complex of Example 61, […]
For S-3-hydroxypentanoic acid, sodium S-3-hydroxypentanoate, mixture of S-3-hydroxypentanoic acid and sodium S-3-hydroxypentanoate, and S-3-hydroxypentanoic acid·sodium S-3-hydroxypentanoate complex of Example 67, […]

[2] = Determination of moisture contents with KF moisture meter at different time points; format: physicochemical; conditions: temperature 23° C., humidity 92.5%
Text: (§1) For R-3-hydroxybutyric acid, potassium R-3-hydroxybutyrate, mixture of R-3-hydroxybutyric acid and potassium R-3-hydroxybutyrate, and R-3-hydroxybutyric acid·potassium R-3-hydroxybutyrate complex of Example 1, under a certain condition, KF moisture meter was used to determine the moisture contents at different time points.
as §1, with “3-hydroxybutyric” for “R-3-hydroxybutyric”, “3-hydroxybutyrate,” for “R-3-hydroxybutyrate,”, “3-hydroxybutyrate” for “R-3-hydroxybutyrate”, “7,” for “1,”
as §1, with “S-3-hydroxybutyric” for “R-3-hydroxybutyric”, “S-3-hydroxybutyrate,” for “R-3-hydroxybutyrate,”, “S-3-hydroxybutyrate” for “R-3-hydroxybutyrate”, “13,” for “1,”
as §1, with “calcium” for “potassium”, “acid·calcium” for “acid·potassium”, “19,” for “1,”
(§2) For 3-hydroxybutyric acid, calcium 3-hydroxybutyrate, mixture of 3-hydroxybutyric acid and calcium 3-hydroxybutyrate, and 3-hydroxybutyric acid·calcium 3-hydroxybutyrate complex of Example 25, under a certain condition, KF moisture meter was used to determine the moisture contents at different time points.
as §2, with “S-3-hydroxybutyric” for “3-hydroxybutyric”, “S-3-hydroxybutyrate,” for “3-hydroxybutyrate,”, “S-3-hydroxybutyrate” for “3-hydroxybutyrate”, “31,” for “25,”
as §1, with “magnesium” for “potassium”, “acid·magnesium” for “acid·potassium”, “37,” for “1,”
as §2, with “magnesium” for “calcium”, “acid·magnesium 3-hydroxy butyrate” for “acid·calcium 3-hydroxybutyrate”, “43,” for “25,”
For S-3-hydroxybutyric acid, magnesium S-3-hydroxybutyrate, mixture of S-3-hydroxybutyric acid and magnesium S-3-hydroxybutyrate, and S-3-hydroxybutyric acid·magnesium S-3-hydroxybutyrate complex of Example 49, under a certain condition, KF moisture meter was used to determine the moisture contents at different time points.
(§3) For R-3-hydroxypentanoic acid, sodium R-3-hydroxypentanoate, mixture of R-3-hydroxypentanoic acid and sodium R-3-hydroxypentanoate, and R-3-hydroxypentanoic acid·sodium R-3-hydroxypentanoate complex of Example 55, under a certain condition, KF moisture meter was used to determine the moisture contents at different time points.
as §3, with “3-hydroxypentanoic” for “R-3-hydroxypentanoic”, “3-hydroxypentanoate,” for “R-3-hydroxypentanoate,”, “3-hydroxypentanoate” for “R-3-hydroxypentanoate”, “61,” for “55,”
as §3, with “S-3-hydroxypentanoic” for “R-3-hydroxypentanoic”, “S-3-hydroxypentanoate,” for “R-3-hydroxypentanoate,”, “S-3-hydroxypentanoate” for “R-3-hydroxypentanoate”, “67,” for “55,”

Row | Molecule | Stability [1] | moisture content (%) ([2]; 30 min) | moisture content (%) ([2]; 1 h) | moisture content (%) ([2]; 2 h) | moisture content (%) ([2]; 4 h) | moisture content (%) ([2]; 6 h) | moisture content (%) ([2]; 7 h) | moisture content (%) ([2]; 11 h) | moisture content (%) ([2]; 22 h) | Stability ([1]; 30° C.) | Stability ([1]; 40° C.) | Stability ([1]; 50° C.) | Stability ([1]; 60° C.) | Stability ([1]; 80° C.) | Stability ([1]; 70° C.)
1 | CC[C@H](O)CC(=O)O.CC[C@H](O)CC(=O)[O-].[Na+] [S-3-hydroxypentanoic acid·sodium S-3-hydroxypentanoate] | unchanged | 0.59 | 1.15 | 1.54 | 2.73 | 3.99 | 4.43 | 7.03 | 14.11 | – | – | – | – | – | –
2 | C[C@H](O)CC(=O)O.C[C@H](O)CC(=O)[O-].C[C@H](O)CC(=O)[O-].[Mg+2] [S-3-hydroxybutyric acid·magnesium S-3-hydroxybutyrate] | – | 0.58 | 0.98 | 1.79 | 3.16 | 4.58 | 5.64 | 8.86 | 14.74 | unchanged | unchanged | unchanged | unchanged | melted | –
3 | magnesium 3-hydroxybutyrate | – | 0.81 | 1.25 | 2.23 | 4.12 | 6.43 | 8.14 | 12.42 | 18.66 | unchanged | unchanged | – | Melted | melted | melted
4 | magnesium R-3-hydroxybutyrate | – | 0.82 | 1.22 | 2.13 | 4.22 | 6.35 | 8.04 | 12.44 | 18.68 | unchanged | unchanged | – | melted | melted | melted
5 | C[C@H](O)CC(=O)O [S-3-hydroxybutyric acid] | – | 1.23 | 2.28 | 4.05 | 6.32 | 9.53 | 10.62 | 17.08 | 32.95 | unchanged | – | melted | melted | melted | melted
6 | CCC(O)CC(=O)O.CCC(O)CC(=O)[O-].[Na+] (centres unmarked) [3-hydroxypentanoic acid·sodium 3-hydroxypentanoate] | unchanged | 0.51 | 0.98 | 1.71 | 2.82 | 4.16 | 4.60 | 7.28 | 14.69 | – | – | – | – | – | –
7 | C[C@H](O)CC(=O)O.C[C@H](O)CC(=O)[O-].C[C@H](O)CC(=O)[O-].[Ca+2] [S-3-hydroxybutyric acid·calcium S-3-hydroxybutyrate] | – | 0.52 | 0.98 | 1.88 | 3.05 | 4.47 | 5.22 | 8.41 | 13.98 | unchanged | unchanged | unchanged | unchanged | melted | –
8 | CC[C@H](O)CC(=O)[O-].[Na+] [Sodium S-3-hydroxypentanoate, sodium S-3-hydroxypentanoate] | unchanged | 0.91 | 1.73 | 2.91 | 4.43 | 6.22 | 6.79 | 10.61 | 20.44 | – | – | – | – | – | –
9 | CC[C@@H](O)CC(=O)O.CC[C@@H](O)CC(=O)[O-].[Na+] [R-3-hydroxypentanoic acid·sodium R-3-hydroxypentanoate] | unchanged | 0.45 | 0.85 | 1.63 | 2.72 | 4.08 | 4.49 | 7.21 | 14.54 | – | – | – | – | – | –
